We go through 1 molecule from article PMC7462607 (eLife, 2020).

Each structure is given as a SMILES string.

In assay [1] the test system is CDK12 G731E or G731R knock-in A549 cells. Kind of assay: Cell viability assay, CDK12 G731E or G731R knock-in A549 cells. It is filed as cell-based. As to conditions: Homo sapiens, four knock-in clones. The method, then:
Seven hundred A549 cells or 1,000 HCT-116 cells in 50 µL of medium were plated per well in 384-well flat clear bottom white polystyrene TC-treated microplates (Corning, Corning, USA). After overnight attachment, cells were dosed with a serial dilution of HQ461 with a D300e digital dispenser (Tecan, Männedorf, Switzerland). Cell survival was measured 72 hr later using CellTiter-Glo luminescent cell viability assay kit (Promega, Madison, USA) following vendor instructions. Luminescence was recorded by EnVison multimode plate reader (PerkinElmer, Waltham, USA). IC50 was determined with GraphPad Prism using baseline correction (by normalizing to DMSO control), the asymmetric (five parameter) equation, and least squares fit.
An sgRNA targeting CDK12 (5’-[…]-3’) was cloned into the pSpCas9(BB)−2A-eGFP (PX458) vector (Addgene 48138). For CDK12 G731E/R knock-in, 1 million A549 cells were nucleofected (using 4D-Nucleofector, Lonza, Basel, Switzerland) with PX458-sgCDK12 and single-stranded oligodeoxynucleotides (G731E: 5’-ttatatacttggccataggttccttctccaataatTTCaataatgtcaaacttgtccacacagcgtttcccccagtc-3’; G731R: 5’-ttatatacttggccataggttccttctccaataatGCGaataatgtcaaacttgtccacacagcgtttcccccagtc-3’). Afterwards, cells were exposed to 5 µM 0461 for 2 weeks to select for cells with CDK12 G731E/R knock-in. […]

The target of assay [2] is T1, CDK12KD/CCNKΔC (Homo sapiens, UniProt Q9NYV4).
T1 construct: Human CDK12KD (residues 715–1052); 6xHis (PreScission site) (N, cleaved yes); made in house; host or cells: Sf9 or High Five, co-infected with yeast CAK1
T1 sequence (Q9NYV4 715-1052, stated change not applied): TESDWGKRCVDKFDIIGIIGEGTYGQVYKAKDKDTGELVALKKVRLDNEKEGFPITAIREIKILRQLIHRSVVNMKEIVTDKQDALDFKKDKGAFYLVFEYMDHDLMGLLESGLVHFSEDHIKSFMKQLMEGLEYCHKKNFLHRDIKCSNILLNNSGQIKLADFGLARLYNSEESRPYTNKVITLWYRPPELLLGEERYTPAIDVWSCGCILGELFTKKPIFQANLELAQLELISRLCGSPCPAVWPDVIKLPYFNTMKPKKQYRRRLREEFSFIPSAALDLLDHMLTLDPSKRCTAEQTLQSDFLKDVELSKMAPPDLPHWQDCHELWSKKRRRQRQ
T1 sequence (O75909 11-267 partner limits assumed): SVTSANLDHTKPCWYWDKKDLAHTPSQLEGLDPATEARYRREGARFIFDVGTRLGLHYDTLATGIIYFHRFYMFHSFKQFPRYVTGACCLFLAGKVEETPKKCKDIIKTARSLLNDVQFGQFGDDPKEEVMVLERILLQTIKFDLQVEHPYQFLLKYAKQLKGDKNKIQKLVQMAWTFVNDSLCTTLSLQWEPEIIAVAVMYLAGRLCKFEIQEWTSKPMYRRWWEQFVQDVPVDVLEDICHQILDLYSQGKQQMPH
Kind of assay: Differential Scanning Fluorimetry (DSF), CDK12KD/CCNKΔC. It is filed as binding. As to conditions: 50 µM HQ461, Sypro Orange; read-out: increase in melting temperature (Tm) of CDK12KD/CCNKΔC. The method, then:
CDK12KD/CCNKΔC (WT or G731E/R) and DDB1ΔBPB were diluted to 5 μM with DSF assay buffer (50 mM HEPES pH 7.5, 300 mM NaCl, 0.5 mM TCEP). 50 µM HQ461 or 10 µM HBx was added to diluted proteins (final DMSO concentration 0.25%). Twenty µL of protein-compound mix was aliquoted per qPCR tube (Labtidebiotech, Shanghai, China, P01-0803E) followed by the addition of 5 µL of 1:400 diluted SYPRO Orange (Sigma-Aldrich, MO, USA, S5692). After incubation on ice for 20 min, fluorescence measurements were performed using a Bio-Rad CFX96 Realtime PCR instrument. During the DSF experiment, the temperature was increased from 10°C to 95°C at an increment of 0.5 °C with equilibration time of 10 s at each temperature prior to measurement. Tm was defined as the temperature corresponding to the maximum value of the first derivative of fluorescence transition.
Background: DSF heats the sample and reads unfolding from a dye or from intrinsic fluorescence.

For assay [3], the target named is T2, CDK12 kinase domain/CCNK-3xHA (Homo sapiens, UniProt Q9NYV4).
T2 construct: ORFs encoding residues 715–1052 of CDK12 and residues 693–1030 of CDK13; expressed in transfected cells; host or cells: 293T
T2 sequence (Q9NYV4 715-1052): as the sequence (Q9NYV4 715-1052, stated change not applied) above
T2 sequence (O75909 whole entry partner, the tested form may be a part): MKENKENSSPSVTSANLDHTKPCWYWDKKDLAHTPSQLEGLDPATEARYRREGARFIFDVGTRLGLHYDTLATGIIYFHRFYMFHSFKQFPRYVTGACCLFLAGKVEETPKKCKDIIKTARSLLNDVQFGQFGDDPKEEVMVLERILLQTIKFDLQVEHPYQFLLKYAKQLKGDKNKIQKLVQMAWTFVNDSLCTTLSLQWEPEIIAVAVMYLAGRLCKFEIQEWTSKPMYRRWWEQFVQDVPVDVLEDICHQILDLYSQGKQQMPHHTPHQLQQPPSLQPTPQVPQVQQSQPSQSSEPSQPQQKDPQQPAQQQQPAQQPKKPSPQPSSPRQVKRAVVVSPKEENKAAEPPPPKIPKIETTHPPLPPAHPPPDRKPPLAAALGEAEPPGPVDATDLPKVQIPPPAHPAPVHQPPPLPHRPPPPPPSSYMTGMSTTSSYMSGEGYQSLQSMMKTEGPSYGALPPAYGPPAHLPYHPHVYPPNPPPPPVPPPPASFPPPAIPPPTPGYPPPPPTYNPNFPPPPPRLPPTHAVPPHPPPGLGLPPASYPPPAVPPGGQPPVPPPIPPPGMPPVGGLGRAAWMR
T2 sequence (Q16531 2-1140 partner limits assumed): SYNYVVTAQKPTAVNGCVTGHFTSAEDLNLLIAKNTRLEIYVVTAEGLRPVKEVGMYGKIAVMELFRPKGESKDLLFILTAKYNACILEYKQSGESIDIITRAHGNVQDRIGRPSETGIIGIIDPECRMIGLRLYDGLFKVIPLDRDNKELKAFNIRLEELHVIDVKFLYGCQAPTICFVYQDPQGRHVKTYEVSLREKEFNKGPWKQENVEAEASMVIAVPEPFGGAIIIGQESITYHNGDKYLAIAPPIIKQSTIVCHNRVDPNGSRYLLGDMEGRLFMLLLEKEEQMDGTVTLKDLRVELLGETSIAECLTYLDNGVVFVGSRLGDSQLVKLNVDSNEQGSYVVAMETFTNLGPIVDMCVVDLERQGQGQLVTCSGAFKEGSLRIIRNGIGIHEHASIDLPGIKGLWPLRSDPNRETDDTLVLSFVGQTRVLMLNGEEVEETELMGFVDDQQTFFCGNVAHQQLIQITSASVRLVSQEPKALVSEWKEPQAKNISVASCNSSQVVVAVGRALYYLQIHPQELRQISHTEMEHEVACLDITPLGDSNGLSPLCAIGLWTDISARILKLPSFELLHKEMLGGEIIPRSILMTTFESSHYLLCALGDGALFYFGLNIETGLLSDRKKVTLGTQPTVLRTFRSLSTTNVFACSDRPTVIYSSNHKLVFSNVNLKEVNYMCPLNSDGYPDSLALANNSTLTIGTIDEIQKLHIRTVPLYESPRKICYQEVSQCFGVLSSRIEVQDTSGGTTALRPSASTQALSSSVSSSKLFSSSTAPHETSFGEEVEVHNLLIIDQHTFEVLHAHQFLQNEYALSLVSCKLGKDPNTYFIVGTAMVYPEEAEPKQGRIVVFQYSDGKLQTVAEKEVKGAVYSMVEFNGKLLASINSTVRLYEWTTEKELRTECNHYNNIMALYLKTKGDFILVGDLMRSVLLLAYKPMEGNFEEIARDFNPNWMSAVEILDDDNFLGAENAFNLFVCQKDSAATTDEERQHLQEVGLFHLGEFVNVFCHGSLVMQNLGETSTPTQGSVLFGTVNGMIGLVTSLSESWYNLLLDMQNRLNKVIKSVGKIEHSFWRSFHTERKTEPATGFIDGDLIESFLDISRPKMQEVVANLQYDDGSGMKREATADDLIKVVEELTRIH
Kind of assay: Co-expression of 3xFLAG-CDK12 kinase domain with CCNK-3xHA. As to conditions: 293T, HQ461 8 hr; not with G731E or G731R. It is filed as cell-based. The method, then:
ORFs encoding residues 715–1052 of CDK12 and residues 693–1030 of CDK13 were cloned into a pCDNA3.1-N-3xFLAG vector. For setting up cells for co-transfection, 0.6 million 293 T cells were seeded per well in 6-well tissue-culture plates and allowed to attach to plates overnight. These cells were then transfected with 50 ng of pCDNA3.1-3xFLAG-CDK12/13 kinase domain, 50 ng of pCDNA3.1-CCNK-3xHA, and 400 ng of the empty pCDNA3.1 vector. Twenty-four hours post transfection, cells were treated with HQ461 for 8 hr, and lysates were collected for western blotting with anti-FLAG and anti-HA antibodies.

Assay [4] concerns CCNK. Kind of assay: In vivo polyubiquitination of CCNK (HEK293T). The assay is classed as cell-based, Homo sapiens. As to conditions: wild-type CDK12 co-expressed. The method, then: Wild-type and G731E/R ORFs of 3 × FLAG-CDK12, either full length or the kinase domain (from resides 715–1052), were cloned into the pCDNA3.1-N-3xFLAG vector. An ORF encoding CCNK (NM_001099402.2) was PCR amplified with A549 cDNA and cloned into a pCDNA3.1-C-3xHA vector. pCMV-8 ×His Ub was a gift from Dr. William Kaelin at Dana Farber Cancer Institute of Harvard. To set up cells for the in vivo ubiquitination assay, 0.6 million HEK293T cells were seeded per well in six-well tissue-culture plates. After overnight attachment, these cells were transfected with 500 ng of pCMV 8 × His Ub, 25 ng of pCDNA3.1-CCNK-3xHA, and 50 ng of pCDNA3.1-3xFLAG-CDK12. Two days later, cells were pretreated with 1 µM of bortezomib for 2 hr, followed by treatment with DMSO or three doses of HQ461 (1, 3, 10 µM) for 4 hr. Cells from each well were rinsed once with DPBS and lysed in 500 μL of buffer 1 (25 mM Tris-HCl, pH 8.0, 8 M urea, 10 mM imidazole) freshly supplemented with one units/µL of benzonase and 1x cOmplete, Mini, EDTA-free protease inhibitor cocktail (Roche, Bazel, Switzerland). Lysates were clarified by spinning at 15,000 xg at 4°C for 10 min. Clarified lysate of each sample was mixed with 10 µL of Ni NTA magarose beads (SMART Life Sciences, Changzhou, China, SM00801) prewashed with lysis buffer. […]

Usually IC50 stands for the concentration at which inhibition is half-maximal. In assay [1], `Cc1cccc(Nc2nc(CC(=O)Nc3ncc(C)s3)cs2)n1` [HQ461, 2-(2-((6-methylpyridin-2-yl)amino)thiazol-4-yl)-N-(5-methylthiazol-2-yl)acetamide] showed a 50% inhibitory concentration (IC50) of 25.2 to 36.5 µM. The ΔTm at 50 µM in assay [2] was determined as 1.4 °C. Besides, in assay [3], the “CCNK destabilization with co-expressed wild-type CDK12 kinase domain” value is listed as “sufficient for mediating HQ461-dependent destabilization of CCNK”. The “CCNK polyubiquitination in cells” value in assay [4] is reported as “increased CCNK polyubiquitination”.
